{
  "source": "patent US9702824B2",
  "about": "“pH sensors” (PROMEGA CORPORATION, priority 2012, dated 2017)",
  "key": {"[1]": {"test_system": "U2-OS cells stably expressing HaloTag-NLS"}, "[2]": {"test_system": "HaloTag-EDG1 fusion protein in U2-OS cells", "test": "Blocking internalization by DYNASORE, detected with pH sensor", "assay_type": "cell-based", "settings": "80 uM, 1 uM S1P for 60 minutes, detected with 1 uM PBI-4479", "description": "In addition to dynamin, DYNASORE, a reversible, non-competitive inhibitor of dynamin, can also be used to block internalization/endocytosis with the blocking detected and monitored using the pH sensor of the present invention. […] After the overnight incubation, the cells were simultaneously labeled for 30 minutes with 1 uM HaloTag pH sensor (PBI-4479) and 80 uM Dynasore (Sigma). Control cells were labeled with the 1 uM HaloTag pH sensor, but were not treated with Dynasore. The cells were then stimulated with 1 uM S1P for 60 minutes and imaged as previously described."}, "[3]": {"test_system": "HaloTag-EDG1 fusion protein in U2-OS cells", "test": "Restoration of internalization by DYNASORE washout", "assay_type": "cell-based", "settings": "80 uM removed by washing, then 1 uM S1P for 60 minutes", "description": "In such experiments, blocked internalization of HaloTag-EDG1 was restored. […] After the overnight incubation, the cells were simultaneously labeled with a HaloTag pH sensor (PBI-4479) and 80 uM DYNASORE (Sigma). Control cells were labeled with the HaloTag pH sensor, but were not treated with DYNASORE. The cells were then stimulated with 1 uM S1P and imaged (T=0 in FIG. 17). At this point, DYNASORE prevents the dynamin-dependent internalization/endocytosis of HaloTag-EDG1. DYNASORE was then removed by washing three times for 5 minutes with McCoy's 5A+10% FBS, and the media replaced with complete media containing 1 uM S1P. The cells were incubated for 60 minutes and imaged as previously described. Internalization of HaloTag-EDG1 was restored as detected and monitored by the pH sensor (SEE FIG. 19)."}, "[4]": {"test": "Ex/Em printed with the synthesis procedures", "assay_type": "physicochemical"}, "[5]": {"test": "Fluorescence excitation and emission spectra of pH sensor agents", "assay_type": "physicochemical", "description": "(§1) Experiments were conducted during development of embodiments of the present invention to determine the fluorescence characteristics of exemplary pH sensor agents PBI-4453 and PBI-4479 (SEE FIG. 1). Fluorescence excitation and emission intensities were measured at a range of wavelengths (SEE FIG. 2). […] Fluorescence detection was performed at a range of pH values (SEE FIG. 3)."}, "[6]": {"test": "pH dependence of fluorescence emission", "assay_type": "physicochemical", "description": "as §1"}, "U2OS cells": {"test_system": "U2OS cells", "test": "Toxicity, CELLTITER-GLO Luminescent Cell Viability Assay (Example 3)", "assay_type": "cell-based", "settings": "0 nM to 20 uM, 24 hour", "description": "The toxicity of dyes PBI-4479 and PBI-4453 was tested in U2OS cells. The cells were plated at 20,000 cells/well in McCoy's 5A media+10% FBS into wells of a 96-well plate. The compounds were then serially diluted 2-fold in McCoy's 5A+10% FBS to a 10× working solution. 10 ul of the working solution was added to the cells to a final concentration of 0 nM to 20 uM. The treated cells were then incubated overnight at 37° C., 5% CO2. Toxicity was tested using Promega's CELLTITER-GLO Luminescent Cell Viability Assay according to the manufacturer's protocol. No toxicity was seen across varying concentrations of the compounds over the 24 hour period (SEE FIG. 9)."}, "[7]": {"test_system": "U2-OS cells stably expressing HaloTag-NLS", "test": "pH sensor permeability, pulse and chase with HaloTag Oregon Green (Example 12)", "settings": "2 uM pulse for 10 minutes"}, "wild-type U2-OS cells": {"test_system": "wild-type U2-OS cells", "test": "Toxicity of HaloTag pH sensors, CELLTITER Glo Cell Viability Assay (Example 9)", "assay_type": "cell-based", "settings": "0-10 uM, overnight", "description": "U2-OS cells were plated at 10,000 cells/well into wells of 96-well plates and incubated overnight. The next day, 0-10 uM (serially diluted 1:2) PBI-4959, PBI-5004 or PBI-4479 was added to the cells and again incubated overnight. After incubation, the media containing the HaloTag® pH sensors was removed, and 100 ul of fresh media (McCoy's 5A+10% FBS) was added. Cell viability was determined using the CELLTITER Glo Cell Viability Assay according to the manufacturer's protocol (Promega Corporation). Luminescence was read on a GloMAX®-Multi luminometer."}, "U2-OS HaloTag-EDG1 cells [8]": {"molecular_target": "T1, U2-OS HaloTag-EDG1 cells (Homo sapiens, UniProt P21453)", "T1 construct": "host or cells: U2-OS HaloTag-EDG1 cells", "T1 sequence (P21453 with tags, fused parts or gaps)": "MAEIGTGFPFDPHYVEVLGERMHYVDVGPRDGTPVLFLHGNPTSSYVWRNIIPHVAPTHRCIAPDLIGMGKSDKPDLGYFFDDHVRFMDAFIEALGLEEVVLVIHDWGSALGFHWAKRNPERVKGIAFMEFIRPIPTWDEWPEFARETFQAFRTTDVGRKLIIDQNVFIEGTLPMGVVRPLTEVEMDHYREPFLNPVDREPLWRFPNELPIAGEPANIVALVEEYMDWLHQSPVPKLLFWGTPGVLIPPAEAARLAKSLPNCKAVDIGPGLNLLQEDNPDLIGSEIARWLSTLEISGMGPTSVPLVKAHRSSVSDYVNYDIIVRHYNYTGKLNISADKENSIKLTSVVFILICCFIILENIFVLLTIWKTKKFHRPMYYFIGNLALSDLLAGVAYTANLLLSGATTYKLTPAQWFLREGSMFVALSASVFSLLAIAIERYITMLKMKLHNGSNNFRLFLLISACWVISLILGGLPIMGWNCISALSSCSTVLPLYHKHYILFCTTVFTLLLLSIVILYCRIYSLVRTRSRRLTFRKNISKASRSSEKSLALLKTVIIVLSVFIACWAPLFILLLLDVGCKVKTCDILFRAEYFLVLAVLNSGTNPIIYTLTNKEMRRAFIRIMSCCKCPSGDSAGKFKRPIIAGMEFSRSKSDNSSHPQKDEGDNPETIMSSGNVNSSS", "test": "Detection of internalization using an impermeable pH sensor (Example 13)", "assay_type": "cell-based", "settings": "500 nM sensor", "description": "The next day, the media was replaced with McCoy's 5A+0.5% cFBS and incubated overnight at 37° C./5% CO2. […] 1 uM S1P (Sphingosine-1-Phosphate) or carrier (DMSO) was then added to the cells, and images were acquired sequentially on Olympus FV500 at 37° C./5% CO2."}, "U2-OS HaloTag-EDG1 cells [9]": {"molecular_target": "T1, U2-OS HaloTag-EDG1 cells", "test": "Detection of internalization using a permeable pH sensor (Example 13)", "assay_type": "cell-based", "settings": "500 nM sensor added after stimulation with or without 1 uM S1P", "description": "To evaluate internalization using a permeable pH Sensor, U2-OS HaloTag®-EDG1 cells (Promega Corporation) were exposed to PBI-5004 and internalization of HaloTag®-EDG1 assessed. […] The next day, the media was replaced with McCoy's 5A+0.5% cFBS and incubated overnight at 37° C./5% CO2. After incubation, 1 uM S1P (Sphingosine-1-Phosphate) was added, and the cells incubated for 30 minutes at 37° C./5% CO2."}},
  "note": "Read-outs that look alike come from different tables or passages of the source.",
  "data": [
    {"compound": "4-((1-(4-((2-(2-((6-chlorohexyl)oxy)ethoxy)ethyl)carbamoyl)phenyl)-3-oxo-6,9,12,15-tetraoxa-2-azaheptadecan-17-yl)) 3′,6′-bis(4-(4-sulfobutyl)piperazin-1-yl) rhodamine(5′,6′)carboxamide [PBI-4995]", "values": [
      {"measurement": "cell permeability", "setting": "[1]", "value": "non-permeability"}
    ]},
    {"compound": "O=C(N/N=C/c1ccc(O)c(O)c1)c1cc2ccccc2cc1O", "note": "[DYNASORE]", "values": [
      {"measurement": "effect on HaloTag-EDG1 internalization", "setting": "[2]", "value": "prevented dynamin-dependent internalization/endocytosis"},
      {"measurement": "HaloTag-EDG1 internalization after washout", "setting": "[3]", "value": "restored"}
    ]},
    {"compound": "CN1CCN(c2ccc3c(c2)Oc2c4c5c(cc2=C3c2cc(C(=O)O)ccc2C(=O)[O-])CCC[N+]=5CCC4)CC1", "note": "[Hexahydroquinoiizino-(4-methylpiperazin-1-yl}-rhodamine-6′-carboxyic acid]", "values": [
      {"measurement": "Em", "setting": "[4]", "value": 586, "unit": "nm"},
      {"measurement": "Ex", "setting": "[4]", "value": 559, "unit": "nm"}
    ]},
    {"compound": "CN1CCN(c2ccc3c(-c4cc(C(=O)NCCOCCOCCOCCOCCOCCOCCCCCCCl)ccc4C(=O)[O-])c4ccc(=[N+]5CCN(C)CC5)cc-4oc3c2)CC1", "note": "[PBI-4453, N-(24-chloro-3,6,9,12,15,18-hexaoxatetracosyl)-3′,6′-bis(4-methylpiperazin-1-yl)-rhodamine-(5,6)carboxamide]", "values": [
      {"measurement": "emission maximum", "setting": "[5]", "value": 571, "unit": "nm"},
      {"measurement": "excitation maximum", "setting": "[5]", "value": 541, "unit": "nm"},
      {"measurement": "pH at or below which maximal fluorescence intensity is exhibited", "setting": "[6]", "value": "≤ 4.15"},
      {"measurement": "percent of maximal fluorescence", "setting": "[6]; at pH 7.53 or higher", "value": "≤ 5", "unit": "%"},
      {"measurement": "pKa", "setting": "[6]; from pH dependence of fluorescence", "value": "~5.84"},
      {"measurement": "toxicity (cell viability)", "setting": "U2OS cells", "value": "No toxicity"}
    ]},
    {"compound": "O=C(NCCOCCOCCCCCCCl)c1cccc(CNC(=O)c2ccc(C(=O)[O-])c(-c3c4ccc(=[N+]5CCN(CCCCS(=O)(=O)O)CC5)cc-4oc4cc(N5CCN(CCCCS(=O)(=O)O)CC5)ccc34)c2)c1", "note": "[PBI-4958]", "values": [
      {"measurement": "cell permeability", "setting": "[7]", "value": "non-permeability"}
    ]},
    {"compound": "O=C(NCCOCCOCCCCCCCl)c1ccc(CNC(=O)c2ccc(C(=O)[O-])c(-c3c4ccc(=[N+]5CCN(CCCCS(=O)(=O)O)CC5)cc-4oc4cc(N5CCN(CCCCS(=O)(=O)O)CC5)ccc34)c2)cc1", "note": "[PBI-4959, 4-((4-((2-(2-((6-chlorohexyl)oxy)ethoxy)ethyl)carbamoyl)benzyl))-3′,6′-bis(4-(4-sulfobutyl)piperazin-1-yl) rhodamine(5′,6′) carboxamide]", "values": [
      {"measurement": "toxicity (cell viability)", "setting": "wild-type U2-OS cells", "value": "non-toxicity"},
      {"measurement": "detection of HaloTag-EDG1 internalization", "setting": "U2-OS HaloTag-EDG1 cells [8]; with 1 uM S1P", "value": "ability to detect internalization of HaloTag-EDG1"},
      {"measurement": "detection of background HaloTag-EDG1 internalization", "setting": "U2-OS HaloTag-EDG1 cells [8]; without 1 uM S1P", "value": "ability to detect background internalization of HaloTag-EDG1"},
      {"measurement": "Em", "setting": "[4]", "value": 564, "unit": "nm"},
      {"measurement": "Ex", "setting": "[4]", "value": 532, "unit": "nm"},
      {"measurement": "cell permeability", "setting": "[7]", "value": "non-permeability"}
    ]},
    {"compound": "O=C(CCOCCOCCOCCOCCNC(=O)c1ccc(C(=O)[O-])c(-c2c3ccc(=[N+]4CCN(CCCCS(=O)(=O)O)CC4)cc-3oc3cc(N4CCN(CCCCS(=O)(=O)O)CC4)ccc23)c1)NCc1cccc(C(=O)NCCOCCOCCCCCCCl)c1", "note": "[PBI-4994]", "values": [
      {"measurement": "cell permeability", "setting": "[7]", "value": "non-permeability"}
    ]},
    {"compound": "O=C(NCC1CCC(C(=O)NCCOCCOCCCCCCCl)CC1)c1ccc(C(=O)[O-])c(-c2c3ccc(=[N+]4CCN(CCCCS(=O)(=O)O)CC4)cc-3oc3cc(N4CCN(CCCCS(=O)(=O)O)CC4)ccc23)c1", "note": "(centres unmarked) [PBI-5004, 4-(((4-((2-(2-((6-chlorohexyl)oxy)ethoxy)ethyl)carbamoyl)cyclohexyl)methyl)) 3′,6′-bis(4-(4-sulfobutyl)piperazin-1-yl) rhodamine(5′,6′) carboxamide]", "values": [
      {"measurement": "toxicity (cell viability)", "setting": "wild-type U2-OS cells", "value": "non-toxicity"},
      {"measurement": "detection of HaloTag-EDG1 internalization", "setting": "U2-OS HaloTag-EDG1 cells [9]", "value": "ability to detect internalization of HaloTag-EDG1"},
      {"measurement": "Em", "setting": "[4]", "value": 560, "unit": "nm"},
      {"measurement": "Ex", "setting": "[4]", "value": 532, "unit": "nm"}
    ]}
  ]
}
